Experimental data taken from patent US20250235566A1, “[…]-[…] LABELING PRECURSORS AND RA[…] THEREFROM” (Medianezia GmbH, priority 2021, published 2025).

Columns and labels:
Format in all cases: biochemical
[1] = molecular target: T1, PREP (prolyl endopeptidase) (Homo sapiens, UniProt P48147); assay: PREP IC50 measurement with N-succinyl-Gly-Pro-AMC substrate; settings: N-succinyl-Gly-Pro-AMC 250 μM, pH=7.4
T1 construct: made in house
T1 sequence (P48147 1-710): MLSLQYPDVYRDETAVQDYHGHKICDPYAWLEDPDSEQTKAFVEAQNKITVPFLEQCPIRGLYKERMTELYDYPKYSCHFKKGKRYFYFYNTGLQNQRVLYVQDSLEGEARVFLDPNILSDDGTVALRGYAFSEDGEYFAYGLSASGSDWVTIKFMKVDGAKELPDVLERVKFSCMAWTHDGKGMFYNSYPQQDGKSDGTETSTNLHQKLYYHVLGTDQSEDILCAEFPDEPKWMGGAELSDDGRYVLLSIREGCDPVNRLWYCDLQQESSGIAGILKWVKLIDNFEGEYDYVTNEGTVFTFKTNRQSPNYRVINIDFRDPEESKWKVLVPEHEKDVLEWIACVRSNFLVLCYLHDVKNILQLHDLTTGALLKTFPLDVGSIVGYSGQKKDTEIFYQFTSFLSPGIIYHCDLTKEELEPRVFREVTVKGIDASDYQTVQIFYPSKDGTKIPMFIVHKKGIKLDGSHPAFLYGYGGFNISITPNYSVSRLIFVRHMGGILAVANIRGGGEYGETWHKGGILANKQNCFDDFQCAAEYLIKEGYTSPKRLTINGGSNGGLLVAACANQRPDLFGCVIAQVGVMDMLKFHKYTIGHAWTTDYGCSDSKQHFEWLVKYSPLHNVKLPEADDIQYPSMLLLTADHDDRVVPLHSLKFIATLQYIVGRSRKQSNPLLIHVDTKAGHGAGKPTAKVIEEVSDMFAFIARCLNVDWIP
Experimental: (§1) The rhFAP (fibroblast activation protein), PREP (prolyl endopeptidase), DPP4 (dipeptidylpeptidase IV), DPP8 (dipeptidylpeptidase VIII) and DPP 9 (dipeptidylpeptidase IX) enzymes were expressed before use in the in vitro assays and then purified.
(§2) IC50 measurements were conducted with the Infinite 200 instrument (Tecan Group Ltd.) and evaluated with the Magellan software.
(§3) The data were evaluated by GraFit 7 using a non-linear fit according to the following equation: […]
(§4) where y is the remaining enzyme activity compared to the non-inhibited sample, xis the final inhibitor concentration used in the assay, s is the slope factor and IC50 is the […] inhibitory concentration.
(§5) 8 concentrations of the FAP inhibitors examined were examined, with always the same DMSO concentration. The inhibitors were pre-incubated at 37° C. for 15 min before the N-succinyl-Gly-Pro-AMC substrate was added. The release kinetics of AMC were measured at an excitation wavelength λex=380 nm and emission wavelength λem=465 nm for at least 10 min.

[2] = molecular target: T2, DPP 9 (dipeptidylpeptidase IX) (Homo sapiens, UniProt Q86TI2); assay: DPP9 IC50 measurement with Ala-Pro-pNA substrate; settings: Ala-Pro-pNA 150 μM, pH=7.4
T2 construct: made in house
Experimental: as §1, §2, §3, §4
(§6) At least 8 concentrations of the FAP inhibitors examined were examined, with always the same DMSO concentration. The inhibitors were pre-incubated at 37° C. for 15 min before the Ala-Pro-pNA substrate was added.

[3] = molecular target: T3, DPP4 (dipeptidylpeptidase IV) (Homo sapiens, UniProt P27487); assay: DPP4 IC50 measurement with Ala-Pro-pNA substrate; settings: Ala-Pro-pNA 25 μM, pH=7.4
T3 construct: made in house
Experimental: as §1, §2, §3, §4, §6

[4] = molecular target: T4, rhFAP (fibroblast activation protein) (Homo sapiens, UniProt Q12884); assay: FAP IC50 measurement with Z-Gly-Pro-AMC substrate; settings: Z-Gly-Pro-AMC 50 μM, pH=8, 15 min pre-incubation at 37° C.
T4 construct: made in house
T4 sequence (Q12884 1-760): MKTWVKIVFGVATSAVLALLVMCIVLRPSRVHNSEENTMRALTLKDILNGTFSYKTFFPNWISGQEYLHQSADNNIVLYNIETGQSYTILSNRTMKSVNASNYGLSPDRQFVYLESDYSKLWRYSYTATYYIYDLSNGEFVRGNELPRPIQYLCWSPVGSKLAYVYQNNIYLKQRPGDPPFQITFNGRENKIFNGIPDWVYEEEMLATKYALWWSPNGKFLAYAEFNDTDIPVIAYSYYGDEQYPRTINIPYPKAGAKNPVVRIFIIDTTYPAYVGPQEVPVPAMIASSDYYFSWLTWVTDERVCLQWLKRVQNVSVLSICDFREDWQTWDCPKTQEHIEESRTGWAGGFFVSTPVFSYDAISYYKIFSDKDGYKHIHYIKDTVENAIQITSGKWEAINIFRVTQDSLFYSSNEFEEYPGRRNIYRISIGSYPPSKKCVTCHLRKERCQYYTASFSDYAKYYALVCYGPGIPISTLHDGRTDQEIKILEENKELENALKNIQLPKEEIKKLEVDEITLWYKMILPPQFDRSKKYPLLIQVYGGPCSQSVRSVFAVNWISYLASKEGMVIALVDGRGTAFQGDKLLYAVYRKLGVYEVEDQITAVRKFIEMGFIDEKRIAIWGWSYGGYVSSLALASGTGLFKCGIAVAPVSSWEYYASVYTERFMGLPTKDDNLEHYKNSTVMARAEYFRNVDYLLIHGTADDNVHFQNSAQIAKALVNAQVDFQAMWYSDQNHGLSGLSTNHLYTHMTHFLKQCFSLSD
Experimental: as §1, §2, §3, §4
as §5, with “Z-Gly-Pro-AMC” for “N-succinyl-Gly-Pro-AMC”, “Δem=465” for “λem=465”

[5] = molecular target: T5, DPP8 (dipeptidylpeptidase VIII) (Homo sapiens, UniProt Q6V1X1); assay: DPP8 IC50 measurement with Ala-Pro-pNA substrate; settings: Ala-Pro-pNA 300 μM, pH=7.4
T5 construct: made in house
Experimental: as §1, §2, §3, §4
as §6, with “added. The release kinetics of pNA were measured at a wavelength of λex=405 nm for at least 10 min.” for “added.”

T3 sequence (P27487 whole entry, species assumed): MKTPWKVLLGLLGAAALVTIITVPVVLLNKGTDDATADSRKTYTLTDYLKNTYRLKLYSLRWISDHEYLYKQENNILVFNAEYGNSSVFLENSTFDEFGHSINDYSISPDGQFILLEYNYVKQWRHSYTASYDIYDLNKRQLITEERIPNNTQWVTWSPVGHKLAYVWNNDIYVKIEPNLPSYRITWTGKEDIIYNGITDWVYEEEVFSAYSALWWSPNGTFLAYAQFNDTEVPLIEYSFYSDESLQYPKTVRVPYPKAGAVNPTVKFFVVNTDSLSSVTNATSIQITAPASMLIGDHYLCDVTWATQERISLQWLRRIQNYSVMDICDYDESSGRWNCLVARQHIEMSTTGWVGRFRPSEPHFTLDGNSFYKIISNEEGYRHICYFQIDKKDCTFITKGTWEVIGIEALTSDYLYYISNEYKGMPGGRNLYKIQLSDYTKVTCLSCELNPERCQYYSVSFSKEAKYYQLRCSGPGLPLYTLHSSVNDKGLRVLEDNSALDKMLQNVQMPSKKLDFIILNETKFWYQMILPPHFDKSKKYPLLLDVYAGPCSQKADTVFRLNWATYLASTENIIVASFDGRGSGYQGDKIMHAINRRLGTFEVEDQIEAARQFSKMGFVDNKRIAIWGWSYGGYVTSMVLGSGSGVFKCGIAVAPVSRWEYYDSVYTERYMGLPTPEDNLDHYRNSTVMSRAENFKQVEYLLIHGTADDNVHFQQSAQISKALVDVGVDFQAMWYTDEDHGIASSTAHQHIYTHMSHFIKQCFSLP
T5 sequence (Q6V1X1 whole entry, species assumed): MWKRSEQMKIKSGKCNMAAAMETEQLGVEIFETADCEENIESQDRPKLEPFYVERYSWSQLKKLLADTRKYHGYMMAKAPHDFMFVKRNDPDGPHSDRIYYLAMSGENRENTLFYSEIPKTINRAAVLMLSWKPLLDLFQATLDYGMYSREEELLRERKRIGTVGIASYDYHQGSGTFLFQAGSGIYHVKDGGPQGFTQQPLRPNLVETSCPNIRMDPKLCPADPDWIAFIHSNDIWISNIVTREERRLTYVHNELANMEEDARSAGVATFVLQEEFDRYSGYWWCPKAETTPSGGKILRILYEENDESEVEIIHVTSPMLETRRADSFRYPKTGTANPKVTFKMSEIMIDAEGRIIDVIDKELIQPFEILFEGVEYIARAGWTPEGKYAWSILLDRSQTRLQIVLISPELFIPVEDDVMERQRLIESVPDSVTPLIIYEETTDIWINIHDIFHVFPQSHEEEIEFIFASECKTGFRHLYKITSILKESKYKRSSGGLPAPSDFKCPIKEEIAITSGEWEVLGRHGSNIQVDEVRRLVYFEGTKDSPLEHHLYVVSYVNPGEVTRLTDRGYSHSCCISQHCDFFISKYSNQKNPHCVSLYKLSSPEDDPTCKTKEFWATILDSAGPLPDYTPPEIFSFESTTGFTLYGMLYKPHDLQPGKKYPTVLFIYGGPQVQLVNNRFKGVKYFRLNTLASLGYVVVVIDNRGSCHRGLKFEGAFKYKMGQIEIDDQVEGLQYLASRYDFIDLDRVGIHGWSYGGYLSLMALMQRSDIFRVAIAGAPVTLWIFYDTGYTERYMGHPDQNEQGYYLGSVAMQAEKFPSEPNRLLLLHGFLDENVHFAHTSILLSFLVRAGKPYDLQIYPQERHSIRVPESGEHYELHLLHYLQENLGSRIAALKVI
T2 sequence (Q86TI2 whole entry, species assumed): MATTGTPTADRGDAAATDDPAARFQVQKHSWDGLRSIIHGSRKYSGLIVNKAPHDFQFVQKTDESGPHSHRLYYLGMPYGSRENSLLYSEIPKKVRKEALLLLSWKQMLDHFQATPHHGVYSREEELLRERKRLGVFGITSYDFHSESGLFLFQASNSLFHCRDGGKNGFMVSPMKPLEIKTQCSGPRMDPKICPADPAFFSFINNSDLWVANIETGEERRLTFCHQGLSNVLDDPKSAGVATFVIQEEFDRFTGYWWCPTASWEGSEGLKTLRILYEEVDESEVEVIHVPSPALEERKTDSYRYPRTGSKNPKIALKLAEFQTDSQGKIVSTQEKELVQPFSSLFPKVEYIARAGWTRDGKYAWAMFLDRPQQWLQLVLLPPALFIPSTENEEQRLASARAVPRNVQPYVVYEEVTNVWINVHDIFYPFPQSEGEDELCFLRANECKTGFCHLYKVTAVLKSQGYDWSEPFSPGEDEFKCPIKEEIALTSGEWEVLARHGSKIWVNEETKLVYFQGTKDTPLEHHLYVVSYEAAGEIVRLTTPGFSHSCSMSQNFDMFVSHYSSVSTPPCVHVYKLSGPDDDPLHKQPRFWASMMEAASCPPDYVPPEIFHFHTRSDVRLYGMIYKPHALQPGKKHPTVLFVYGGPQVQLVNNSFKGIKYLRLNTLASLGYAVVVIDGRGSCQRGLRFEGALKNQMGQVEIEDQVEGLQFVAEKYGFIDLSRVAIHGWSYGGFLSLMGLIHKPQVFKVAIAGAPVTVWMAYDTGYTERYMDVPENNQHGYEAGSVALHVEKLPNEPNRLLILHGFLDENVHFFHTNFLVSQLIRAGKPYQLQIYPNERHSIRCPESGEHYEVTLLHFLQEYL

In the case of `CN(CC(=O)O)C1(CCCCC(=O)N[C@@H](CCC(=O)NCCCCOc2ccc3nccc(C(=O)NCC(=O)N4CC(F)(F)C[C@H]4C#N)c3c2)C(=O)NCCCCOc2ccc3nccc(C(=O)NCC(=O)N4CC(F)(F)C[C@H]4C#N)c3c2)CN(CC(=O)O)CCN(CC(=O)O)C1` [DATA^5m.Glu.(FAPi)2, 2,2′-(6-(5-(((S)-1,5-bis((4-((4-((2-((S)-2-cyano-4,4-difluoropyrrolidin-1-yl)-2-oxoethyl)carbamoyl)quinolin-6-yl)oxy)butyl)amino)-1,5-dioxopentan-2-yl)amino)-5-oxopentyl)-6-((carboxymethyl)(methyl)amino)-1,4-diazepane-1,4-diyl)diacetic acid], the IC50 [1] is reported as 310 ± 60 nM, the IC50 [2] is reported as 770 ± 110 nM and the IC50 [3] is reported as 1570 ± 60 nM. The IC50 [4] was 0.71 ± 0.05 nM and the IC50 [5] was 2220 ± 400 nM.

Work on `N#C[C@@H]1CC(F)(F)CN1C(=O)CNC(=O)c1ccnc2ccc(OCCCCNC(=O)CC[C@H](NC(=O)CN3CCN(CC(=O)O)CCN(CC(=O)O)CCN(CC(=O)O)CC3)C(=O)NCCCCOc3ccc4nccc(C(=O)NCC(=O)N5CC(F)(F)C[C@H]5C#N)c4c3)cc12` [DOTA.Glu.(FAPi)2, 2,2′,2″-(10-(2-(((S)-1,5-bis((4-((4-((2-((S)-2-cyano-4,4-difluoropyrrolidin-1-yl)-2-oxoethyl)carbamoyl)quinolin-6-yl)oxy)butyl)amino)-1,5-dioxopentan-2-yl)amino)-2-oxoethyl)-1,4,7,10-tetraazacyclododecan-1,4,7-triyl)triacetic acid] yielded an IC50 [1] of 1000 ± 140 nM, an IC50 [2] of 950 ± 110 nM and an IC50 [3] of 540 ± 60 nM. It also gave an IC50 [4] of 0.6 ± 0.04 nM and an IC50 [5] of 1030 ± 180 nM.

`N#C[C@@H]1CC(F)(F)CN1C(=O)CNC(=O)c1ccnc2ccc(OCCCCNC(=O)CC[C@H](NC(=O)CCC(C(=O)O)N3CCN(CC(=O)O)CCN(CC(=O)O)CCN(CC(=O)O)CC3)C(=O)NCCCCOc3ccc4nccc(C(=O)NCC(=O)N5CC(F)(F)C[C@H]5C#N)c4c3)cc12` (stereo partly drawn) [DOTAGA.Glu.(FAPi)2, 2,2′,2″-(10-(4-(((S)-1,5-bis((4-((4-((2-((S)-2-cyano-4,4-difluoropyrrolidin-1-yl)-2-oxoethyl)carbamoyl)quinolin-6-yl)oxy)butyl)amino)-1,5-dioxopentan-2-yl)amino)-1-carboxy-4-oxobutyl)-1,4,7,10-tetraazacyclododecan-1,4,7-triyl)triacetic acid] gave an IC50 [1] of 590 ± 100 nM, an IC50 [2] of 83 ± 1.5 nM and an IC50 [3] of 1190 ± 80 nM. It also gave an IC50 [4] of 0.26 ± 0.04 nM and an IC50 [5] of 29 ± 4 nM.

With `N#C[C@@H]1CC(F)(F)CN1C(=O)CNC(=O)c1ccnc2ccccc12` [UAMC1110, (S)—N-(2-(2-cyano-4,4′-difluoropyrrolidin-1-yl)-2-oxoethyl)quinoline-4-carboxamide, reference compound] the IC50 [5] was greater than 10000 nM.
